Measured values reported in PubChem BioAssay (NCI).
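The compound was tested at five concentrations on cells cultured in 96-well plates, with a 48-hour exposure period. TGI: total growth inhibition.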

Legend:
Assay in all cases: growth of human tumour cells (NCI), 48 h
IGROV1 ovarian = tested on: IGROV1 ovarian
UACC-62 melanoma = tested on: UACC-62 melanoma
U251 CNS = tested on: U251 CNS
786-0 renal = tested on: 786-0 renal
LOX IMVI melanoma = tested on: LOX IMVI melanoma
OVCAR-3 ovarian = tested on: OVCAR-3 ovarian
A549 NSCLC = tested on: A549 NSCLC
T-47D breast = tested on: T-47D breast
SR leukemia = tested on: SR leukemia
HS 578T breast = tested on: HS 578T breast
SN12C renal = tested on: SN12C renal
SF-268 CNS = tested on: SF-268 CNS
PC-3 prostate = tested on: PC-3 prostate
SF-539 CNS = tested on: SF-539 CNS
BT-549 breast = tested on: BT-549 breast
UACC-257 melanoma = tested on: UACC-257 melanoma
NCI-H23 lung = tested on: NCI-H23 lung
SK-MEL-2 melanoma = tested on: SK-MEL-2 melanoma
OVCAR-4 ovarian = tested on: OVCAR-4 ovarian
OVCAR-8 ovarian = tested on: OVCAR-8 ovarian
SF-295 CNS = tested on: SF-295 CNS
NCI-H522 lung = tested on: NCI-H522 lung
HCT-15 colon = tested on: HCT-15 colon
RPMI-8226 leukemia = tested on: RPMI-8226 leukemia
MOLT-4 leukemia = tested on: MOLT-4 leukemia
SK-MEL-28 melanoma = tested on: SK-MEL-28 melanoma
SW-620 colon = tested on: SW-620 colon
NCI-H460 lung = tested on: NCI-H460 lung
MDA-MB-435 = tested on: MDA-MB-435
K-562 leukemia = tested on: K-562 leukemia
HT29 colon = tested on: HT29 colon
SNB-19 CNS = tested on: SNB-19 CNS
OVCAR-5 ovarian = tested on: OVCAR-5 ovarian
M14 melanoma = tested on: M14 melanoma
NCI/ADR-RES ovarian = tested on: NCI/ADR-RES ovarian
CAKI-1 renal = tested on: CAKI-1 renal
MCF7 breast = tested on: MCF7 breast
UO-31 renal = tested on: UO-31 renal
DU-145 prostate = tested on: DU-145 prostate
ACHN renal = tested on: ACHN renal
HCC-2998 colon = tested on: HCC-2998 colon
NCI-H226 lung = tested on: NCI-H226 lung
KM12 colon = tested on: KM12 colon
MALME-3M melanoma = tested on: MALME-3M melanoma
CCRF-CEM leukemia = tested on: CCRF-CEM leukemia
HOP-62 NSCLC = tested on: HOP-62 NSCLC
SK-OV-3 ovarian = tested on: SK-OV-3 ovarian
COLO 205 colon = tested on: COLO 205 colon
RXF 393 renal = tested on: RXF 393 renal
SNB-75 CNS = tested on: SNB-75 CNS
EKVX NSCLC = tested on: EKVX NSCLC
MDA-MB-231 breast = tested on: MDA-MB-231 breast
TK-10 renal = tested on: TK-10 renal
HL-60(TB) leukemia = tested on: HL-60(TB) leukemia
HCT-116 colon = tested on: HCT-116 colon

## O=C(C(Cl)Cl)N(O)c1ccccc1OCc1ccccc1
IGROV1 ovarian
  TGI: > 100 µM
UACC-62 melanoma
  TGI: 92.2 µM
U251 CNS
  TGI: > 100 µM
786-0 renal
  TGI: > 100 µM
LOX IMVI melanoma
  TGI: > 100 µM
OVCAR-3 ovarian
  TGI: > 100 µM
A549 NSCLC
  TGI: > 100 µM
T-47D breast
  TGI: 51.8 µM
SR leukemia
  TGI: > 100 µM
HS 578T breast
  TGI: 61.7 µM
SN12C renal
  TGI: > 100 µM
SF-268 CNS
  TGI: > 100 µM
PC-3 prostate
  TGI: > 100 µM
SF-539 CNS
  TGI: > 100 µM
BT-549 breast
  TGI: 1.43 µM
UACC-257 melanoma
  TGI: 63.9 µM
NCI-H23 lung
  TGI: > 100 µM
SK-MEL-2 melanoma
  TGI: > 100 µM
OVCAR-4 ovarian
  TGI: 78.9 µM
OVCAR-8 ovarian
  TGI: 63.5 µM
SF-295 CNS
  TGI: > 100 µM
NCI-H522 lung
  TGI: 82.4 µM
HCT-15 colon
  TGI: > 100 µM
RPMI-8226 leukemia
  TGI: 69.2 µM
MOLT-4 leukemia
  TGI: > 100 µM
SK-MEL-28 melanoma
  TGI: > 100 µM
SW-620 colon
  TGI: 68.1 µM
NCI-H460 lung
  TGI: > 100 µM
MDA-MB-435
  TGI: > 100 µM
K-562 leukemia
  TGI: > 100 µM
HT29 colon
  TGI: > 100 µM
SNB-19 CNS
  TGI: > 100 µM
OVCAR-5 ovarian
  TGI: > 100 µM
M14 melanoma
  TGI: > 100 µM
NCI/ADR-RES ovarian
  TGI: > 100 µM
CAKI-1 renal
  TGI: > 100 µM
MCF7 breast
  TGI: > 100 µM
UO-31 renal
  TGI: > 100 µM
DU-145 prostate
  TGI: 45.5 µM
ACHN renal
  TGI: > 100 µM
HCC-2998 colon
  TGI: 6.89 µM
NCI-H226 lung
  TGI: > 100 µM
KM12 colon
  TGI: > 100 µM
MALME-3M melanoma
  TGI: > 100 µM
CCRF-CEM leukemia
  TGI: 39 µM
HOP-62 NSCLC
  TGI: > 100 µM
SK-OV-3 ovarian
  TGI: > 100 µM
COLO 205 colon
  TGI: 68 µM
RXF 393 renal
  TGI: > 100 µM
SNB-75 CNS
  TGI: > 100 µM
EKVX NSCLC
  TGI: 48.8 µM
MDA-MB-231 breast
  TGI: > 100 µM
TK-10 renal
  TGI: > 100 µM
HL-60(TB) leukemia
  TGI: > 100 µM
HCT-116 colon
  TGI: > 100 µM
